Measurements from US5693492A, “DNA encoding glutamate gated chloride channels” (priority 1995, dated 1997).

Target: T1, Dros GluCl (Drosophila melanogaster, UniProt Q94900, I27V/K241R)
T1 construct: Clone pDros GluCl was linearized by digestion with the restriction endonuclease SalI; expressed in transfected cells; host or cells: Xenopus laevis oocytes injected with in vitro transcribed Dros GluCl RNA
Test: cell-based
Settings: for Reversibility of activated current (in words): after washing drug from the bath, IVMPO4 observed for up to 10 minutes; for Sensitivity of oocytes injected with Dros GluCl RNA (in words): tested at concentrations of 1 mM or higher
Description: Clone pDros GluCl was linearized by digestion with the restriction endonuclease SalI. In vitro RNA was synthesized from 0.5 μg of this plasmid in a reaction containing 40 mM Tris-HCl, pH 7.5; 6 mM MgCl2; 2 mM Spermidine; 10 mM NaCl; 10 mM DTT; 0.05 mg/ml Bovine Serum Albumin; 2 units/ul RNasin; 800 μM each ATP, CTP, and UTP; 200 μMGTP; 800 μM m7G(5')ppp(5')G; 5 μCi ^32 P-CTp; and 50 units T3 RNA polymerase in a final volume of 50 μl. The reaction was incubated for 3 hours at 37° C. followed by an additional 15 minutes incubation with 20 units RNase free DNase and extraction with phenol, phenol:chloroform, and chloroform. The RNA was precipitated with 1/10 volume 3M sodium acetate and 2.5 volumes 100% ethanol, stored at -20° C. for 16 hours, washed with 70% ethanol and resuspended in water at a concentration of 1 mg/ml for injection into Xenopus laevis oocytes.
Xenopus laevis oocytes were prepared and injected using standard methods previously described and known in the art [Arena, J. P., Liu, K. K., Paress, P. S. & Cully, D. F. Mol. Pharmacol. 40, 368-374 (1991); Arena, J. P., Liu, K. K., Paress, P. S., Schaeffer, J. M. & Cully, D. F. Mol. Brain Res. 15, 339-348 (1992)]. Adult female Xenopus laevis were anesthetized with 0.17% tricaine methanesulfonate and the ovaries were surgically removed and placed in a dish consisting of (mM): NaCl 82.5, KCl 2, MgCl2 1, CaCl2 1.8, HEPES 5 adjusted to pH 7.5 with NaOH (OR-2). Ovarian lobes were broken open, rinsed several times, and gently shaken in OR-2 containing 0.2% collagenase (Sigma, Type 1A) for 2-5 hours. When approximately 50% of the follicular layers were removed, Stage V and VI oocytes were selected and placed in media consisting of (mM): NaCl 86, KCl 2, MgCl2 1, CaCl2 1.8, HEPES 5, Na pyruvate 2.5, theophylline 0.5, gentamicin 0.1 adjusted to pH 7.5 with NaOH (ND-96) for 24-48 hours before injection. Oocytes were injected with 50 nl of Dros GluCl RNA (0.01-1 mg/ml). Control oocytes were injected with 50 nl of water. Oocytes were incubated for 2-10 days in ND-96 before recording. Incubations and collagenase digestion were carried out at 18° C.
Recordings were made at room temperature in standard frog saline consisting of (mM): NaCl 115, KCl 2, MgCl2 1, CaCl2 1.8, HEPES 10, adjusted to pH 7.5 with NaOH. Oocytes were voltage-clamped using a standard two microelectrode amplifier (Dagan 8500 or TEV-200, Minneapolis, Minn.). Pipettes were filled with 3M KCl and had resistances between 0.5-3.0 megaohms. A plexiglass recording chamber (volume 200 μl) was constantly perfused at a rate of 10 ml/min. The recording chamber was connected to ground with a Ag/AgCl electrode. Data were acquired and analyzed using PCLAMP with a TL-1 interface (Axon Instruments, Foster City, Calif.). Membrane current at a holding potential of -80 mV was recorded. The amplitude of drug-sensitive current was determined by subtracting the holding current at -80 mV from the peak current obtained in the presence of drug. Data were filtered at 30 Hz and sampled at 16.6 Hz. Current/voltage relationships (I/V) and reversal potentials (Erev) were determined using a 1-3 sec voltage ramp over the voltage range of -110 to +80 mV. For the ramps, data were filtered at 0.3-3 kHz and sampled at 160 Hz. Current in drug free solution was subtracted from current in the presence of drug to obtain drug-sensitive current/voltage relationships.

T1 sequence (Q94900 23-456 I27V/K241R/S345N): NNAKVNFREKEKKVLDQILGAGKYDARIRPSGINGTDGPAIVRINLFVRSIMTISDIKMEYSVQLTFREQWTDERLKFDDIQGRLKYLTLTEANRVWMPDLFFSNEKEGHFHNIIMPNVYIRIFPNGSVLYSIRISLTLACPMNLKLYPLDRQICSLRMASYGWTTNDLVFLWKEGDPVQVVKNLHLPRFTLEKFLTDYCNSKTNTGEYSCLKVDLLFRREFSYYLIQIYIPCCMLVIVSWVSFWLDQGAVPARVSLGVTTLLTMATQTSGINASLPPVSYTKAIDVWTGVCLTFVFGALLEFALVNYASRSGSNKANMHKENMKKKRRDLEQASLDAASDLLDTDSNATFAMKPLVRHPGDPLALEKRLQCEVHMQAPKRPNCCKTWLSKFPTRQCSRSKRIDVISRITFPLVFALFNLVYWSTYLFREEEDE

C=C(C)C1C(=O)c2c3c(cc4c5c(n1c24)C1(C)C(CCC2C(C)(/C=C/C=C(\C)C(=O)O)C(O)CCC21C)C5)C1=CC(C)(C)OC(C)(C)C1C3O (centres unmarked) [Compound-1]
Time for current to fully return to baseline (after Compound-1, oocytes expressing Dros GluCl): up to 10 minutes
Reversibility of activated current (in words): slowly reversible
Activation of membrane current (in words) (oocytes expressing Dros GluCl): directly activated membrane current

NCCCC(=O)O [GABA]
Sensitivity of oocytes injected with Dros GluCl RNA (in words): insensitive

CC[C@H](C)[C@H]1O[C@]2(CC[C@@H]1C)C[C@@H]1C[C@@H](C/C=C(\C)[C@H](O[C@H]3C[C@H](OC)[C@@H](O[C@H]4C[C@H](OC)[C@@H](OP(=O)(O)O)[C@H](C)O4)[C@H](C)O3)[C@@H](C)/C=C/C=C3\CO[C@@H]4[C@H](O)C(C)=C[C@@H](C(=O)O1)[C@]34O)O2 [IVMPO4]
Current activated, % of maximal current (10 nM IVMPO4, oocytes expressing Dros GluCl): 20-40%
Reversibility of activated current (in words): irreversible
Activation of membrane current (in words) (oocytes expressing Dros GluCl): directly activated current
Concentration giving maximal activation of current (oocytes expressing Dros GluCl): 1 µM

CN[C@H](CC(=O)O)C(=O)O [N-methyl-D-aspartic acid]
Sensitivity of oocytes injected with Dros GluCl RNA (in words): insensitive

N[C@@H](CC(=O)O)C(=O)O [aspartate]
Emax at 1000 µM (read-out: % of maximal activation): 8%

N[C@@H](CCC(=O)O)C(=O)O [glutamate]
EC50: 30 µM

NCC(=O)O [glycine]
Sensitivity of oocytes injected with Dros GluCl RNA (in words): insensitive

NCCc1c[nH]cn1 [histamine]
Sensitivity of oocytes injected with Dros GluCl RNA (in words): insensitive

NC(C(=O)O)c1cc(O)no1 (centres unmarked) [ibotenate]
Activation of membrane current (in words) (oocytes expressing Dros GluCl): reversibly activated
Concentration giving maximal activation of current (oocytes expressing Dros GluCl): 100 µM

C=C(C)[C@H]1CN[C@H](C(=O)O)[C@H]1CC(=O)O [kainate]
Sensitivity of oocytes injected with Dros GluCl RNA (in words): insensitive

picrotoxin
Block of the current elicited with IVMPO4 (500 μM picrotoxin, oocytes expressing Dros GluCl): 13%
